Results on three compounds are retold here after patent US20080161254A1, “HCV INHIBITORS” (ViroBay, Inc., priority 2007, published 2008).

Structures are written as SMILES.

The test system of the assay is HCV replication (HCV replicon-containing Huh7/Clone A cells). The assay is described as follows: HCV replicon assay. Conditions: Hepatitis C virus, Huh-7, 48 hours incubation, HCV replicon RNA by RT-qPCR normalized to total RNA, read-out: IC50, inhibition of HCV replication. The format is cell-based. An excerpt:
The HCV replicon assay is a cell-culture system that mimics in vivo HCV replication and provides a system to study HCV replication in vitro. It was created by transfecting cloned viral RNA derived from a consensus HCV genomic sequence into human Huh7 hepatoma cells that are semi-permissive for viral RNA production (Lohmann V., Korner F., Koch J.-0., Herian U., Theilmann L. and Bartenschlager R. (1999). Replication of subgenomic Hepatitis C virus RNAs in a hepatoma cell line. Science 285, 110-113 and Blight K. J., Kolykhalov A. A. and Rice C. M. (2000). Efficient initiation of HCV RNA Replication in cell culture. Science 290, […]). These transfected cell lines contain a subgenomic HCV RNA genome that includes (1) the HCV 5′NTR fused to 12 amino acids of the capsid coding region, (2) the neomycin phosphotransferase gene (Neo) as a selectable marker, (3) the internal ribosome entry site (IRES) from encephalomyocarditis virus (EMCV) that directs translation of HCV non-structural proteins (variously NS2 or NS3 to NS5B), and (4) the 3′ NTR. Replicon-containing cells autonomously and persistently replicate HCV RNA that can be measured quantitatively by real-time qPCR. Therefore, the replicon system facilitates quantitative assessment of anti-viral activity by monitoring changes in HCV RNA replication in a cell-based assay.
HCV replicon-containing cells (Huh7/Clone A) were routinely maintained in Clone A growth medium (DMEM medium [Invitrogen], supplemented with 10% Fetal Bovine Serum, 1% Non Essential Amino Acids and 1 g/L G418). […]
Total RNA eluted in 130 μl of RNase-free dH2O was quantitated by the RiboGreen Assay according to the supplier's protocol (Molecular Probe). […] RNA samples in the black microplate were mixed with 95 μl of diluted RiboGreen reagent (1:250 dilution in TE buffer) and sample fluorescence was measured using a fluorescence microplate reader at standard fluorescein wavelengths (excitation ˜480 nm, emission ˜520 nm). […]
TaqMan quantitative PCR(RT-qPCR) was used to quantitate the amount of HCV replicon RNA in each sample. […]
For orientation: Replicon systems follow genome replication, usually without infectious particles.

Usually IC50 stands for the concentration at which inhibition is half-maximal. As for `CCC[C@H](NC(=O)[C@@H]1C[C@@H](Oc2cc(-c3ccccn3)nc3ccsc23)CN1C(=O)[C@@H](NC(=O)NC(C)(C)C)C(C)(C)C)C(=O)C(=O)NC1CC1` [Example 5, (2S,4R)-1-((S)-2-(3-tert-butylureido)-3,3-dimethylbutanoyl)-N—((S)-1-(cyclopropylamino)-1,2-dioxohexan-3-yl)-4-(5-(pyridin-2-yl)thieno[3,2-b]pyridin-7-yloxy)pyrrolidine-2-carboxamide], the IC50 is less than 1000 nM. For `CCC[C@H](NC(=O)[C@@H]1C[C@@H](Oc2nc(-c3ccccn3)nc3sccc23)CN1C(=O)[C@@H](NC(=O)NC(C)(C)C)C(C)(C)C)C(=O)C(=O)NC1CC1` [Example 6, (2S,4R)-1-((S)-2-(3-tert-butylureido)-3,3-dimethylbutanoyl)-N—((S)-1-(cyclopropylamino)-1,2-dioxohexan-3-yl)-4-(2-(pyridin-2-yl)thieno[2,3-d]pyrimidin-4-yloxy)pyrrolidine-2-carboxamide] the value was less than 1000 nM; for `CCC[C@H](NC(=O)[C@@H]1C[C@@H](Oc2nc(-c3ccccn3)nc3ccsc23)CN1C(=O)[C@@H](NC(=O)NC(C)(C)C)C(C)(C)C)C(=O)C(=O)NC1CC1` [Example 7, (2S,4R)-1-((S)-2-(3-tert-butylureido)-3,3-dimethylbutanoyl)-N—((S)-1-(cyclopropylamino)-1,2-dioxohexan-3-yl)-4-(2-(pyridin-2-yl)thieno[3,2-d]pyrimidin-4-yloxy)pyrrolidine-2-carboxamide], less than 1000 nM.
